Experimental data taken from patent publication US12252481B2, “Anti-viral compounds” (Aligos Therapeutics, Inc., priority 2021, dated 2025).
Where two headings read alike, the source gives them in different places.

Experiments:
SARS-Cov-2 3CLpro = target: T1, SARS-Cov-2 3CLpro (Severe acute respiratory syndrome coronavirus 2, UniProt P0DTD1); assay: biochemical; settings: 3CLpro, 30 mins preincubation, SAMDI-MS; read-out: SARS-Cov-2 IC50 (class)
T1 construct: 3CLpro and HRV3C was added using a Multidrop Combi

[1] = tested on: SARS-CoV-2-GHB-03021/2020; type: cell-based; settings: read-out: VeroE6 + CP (EC50)
[2] = tested on: human beta-coronavirus OC43; assay: OC43 coronavirus antiviral assay in HeLa cells (cytopathic effect, cell-titer-glo); type: cell-based; settings: Betacoronavirus 1, OC43, HeLa, 144 h, 6 days at 33° C., read-out: EC50 (class)
HRV3C = target: T2, HRV3C (Human rhinovirus 14, UniProt P03303); assay: biochemical; design: species or system HRV; settings: HRV3C, 30 mins preincubation, SAMDI-MS; read-out: HRV IC50 (bound)
T2 construct: 3CLpro and HRV3C was added using a Multidrop Combi

[3] = tested on: B.1.1.7 lineage SARS-CoV-2; assay: microbe, parasite or virus in culture; type: cell-based
human cathepsin L = target: T3, human cathepsin L (Homo sapiens, UniProt P07711); assay: Cathepsin L assay (Z-FR-AMC fluorescence); type: biochemical; settings: 10 pM human cathepsin L, 30 mins preincubation, Z-FR-AMC 2 μM
T3 construct: purchased R&D Systems
Experimental: For the cathepsin L assay, 10 pM of human cathepsin L (R&D Systems; Minneapolis, MN) was preincubated for 30 mins with test compounds. Reactions were initiated by the addition of a peptide substrate Z—FR-AMC (final concentration 2 μM, Anaspec; Fremont, CA). Fluorescence was measured at 2-minute intervals for 30 mins using a 355/460 excitation/emission filter module on an Envision plate reader (Perkin Elmer; Waltham, MA). The IC50 values were calculated for each assay by fitting the curves using a four-parameter equation in GraphPad Prism.

[4] = Severe acute respiratory syndrome coronavirus 2, 96 h; read-out: A549-dual_ACE2_TMPRSS2 (EC50)

T3 sequence (P07711 114-333): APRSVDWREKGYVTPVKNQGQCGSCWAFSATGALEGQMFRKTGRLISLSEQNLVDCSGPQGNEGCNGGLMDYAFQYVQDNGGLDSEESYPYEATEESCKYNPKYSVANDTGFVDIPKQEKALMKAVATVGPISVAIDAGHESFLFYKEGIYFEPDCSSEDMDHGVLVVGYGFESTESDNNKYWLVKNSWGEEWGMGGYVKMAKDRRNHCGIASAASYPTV
T2 sequence (P03303 1538-1719): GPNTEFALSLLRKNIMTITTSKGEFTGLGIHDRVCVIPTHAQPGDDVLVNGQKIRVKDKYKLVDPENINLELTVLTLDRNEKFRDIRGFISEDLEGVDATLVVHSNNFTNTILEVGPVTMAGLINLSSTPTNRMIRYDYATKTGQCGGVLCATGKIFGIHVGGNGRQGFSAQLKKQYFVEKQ

Compound | IC50 (SARS-Cov-2 3CLpro) | EC50 [1] | EC50 [2] | IC50 (HRV3C) | EC50 [3, 4] | IC50 (human cathepsin L) | EC50 ([3]; Severe acute respiratory syndrome coronavirus 2, 96 h, read-out: A549-dual_ACE2_TMPRSS2 (EC50))
CC(C)(C)[C@H](NC(=O)C(F)(F)F)C(=O)N1C[C@H]2[C@@H]([C@H]1C(=O)N[C@H](C#N)C[C@@H]1CCNC1=O)[C@H]1CC[C@@H]2O1 (mixture of isomers) [Compound 58, (1S,3aR,4S,7R,7aS)-N-((S)-1-cyano-2-((S)-2-oxopyrrolidin-3-yl)ethyl)-2-((S)-3,3-dimethyl-2-(2,2,2-trifluoroacetamido)butanoyl)octahydro-1H-4,7-epoxyisoindole-1-carboxamide] | 0.2 to 2 µM | 1 to 10 µM | 1 to 10 µM | > 10 µM | 1 to 10 µM | ≥ 10 µM | –
CC(C)(C)[C@H](NC(=O)C(F)(F)F)C(=O)N1C[C@H]2[C@@H]([C@H]1C(=O)N[C@H](C#N)C[C@@H]1CCNC1=O)[C@H]1C=C[C@@H]2CC1 (mixture of isomers) [Compound 59] | < 0.02 µM | < 0.1 µM | < 0.1 µM | > 10 µM | < 0.1 µM | ≥ 10 µM | –
CC(C)(C)[C@H](NC(=O)C(F)(F)F)C(=O)N1C[C@@H]2[C@@H]3CC[C@@H](C3)[C@@H]2[C@H]1C(=O)N[C@H](C#N)CC1Cn2nccc2NC1=O (relative stereo) [Compound 17a, (1S,3aR,4R,7S,7aS)-N-((S)-1-cyano-2-((R*)-5-oxo-4,5,6,7-tetrahydropyrazolo[1,5-a]pyrimidin-6-yl)ethyl)-2-((S)-3,3-dimethyl-2-(2,2,2-trifluoroacetamido)butanoyl)octahydro-1H-4,7-methanoisoindole-1-carboxamide] | < 0.02 µM | < 0.1 µM | < 0.1 µM | > 10 µM | 0.1 to 1 µM | ≥ 10 µM | –
CC(C)(C)[C@H](NC(=O)C(F)(F)F)C(=O)N1C[C@@H]2[C@@H]3CC[C@@H](C3)[C@@H]2[C@H]1C(=O)N[C@H](C#N)C[C@H]1Cn2nccc2NC1=O (relative stereo) [Compound 17b] | < 0.02 µM | 0.1 to 1 µM | 0.1 to 1 µM | > 10 µM | 0.1 to 1 µM | ≥ 10 µM | –
N#C[C@H](C[C@@H]1CCNC1=O)NC(=O)[C@@H]1[C@@H]2[C@H](CN1C(=O)[C@@H]1C[C@]13CCOc1ccccc13)[C@@H]1C=C[C@H]2C1 (relative stereo) [Compound 55, (1S,3aR,4S,7R,7aS)-N-((S)-1-cyano-2-((S)-2-oxopyrrolidin-3-yl)ethyl)-2-((2′R*,4S*)-spiro[chromane-4,1′-cyclopropane]-2′-carbonyl)-2,3,3a,4,7,7a-hexahydro-1H-4,7-methanoisoindole-1-carboxamide] | 0.02 to 0.2 µM | 0.1 to 1 µM | 1 to 10 µM | > 10 µM | 0.1 to 1 µM | ≥ 10 µM | –
CC(C)(C)[C@H](NC(=O)C(F)(F)F)C(=O)N1C[C@H]2[C@@H]([C@H]1C(=O)NC(C#N)Cc1ccc[nH]c1=O)[C@H]1C=C[C@@H]2C1 (single isomer, unassigned) [Compound 57, (1S,3aR,4S,7R,7aS)-N-((S*)-1-cyano-2-(2-oxo-1,2-dihydropyridin-3-yl)ethyl)-2-((S)-3,3-dimethyl-2-(2,2,2-trifluoroacetamido)butanoyl)-2,3,3a,4,7,7a-hexahydro-1H-4,7-methanoisoindole-1-carboxamide] | 0.02 to 0.2 µM | 0.1 to 1 µM | 0.1 to 1 µM | > 10 µM | 0.1 to 1 µM | ≥ 10 µM | –
N#C[C@H](C[C@@H]1CCNC1=O)NC(=O)[C@@H]1[C@@H]2[C@H](CN1C(=O)[C@@H]1C[C@]13CCc1ccccc13)[C@@H]1C=C[C@H]2C1 (single isomer, unassigned) [Example 38, (1S,3aR,4S,7R,7aS)-N-((S)-1-cyano-2-((S)-2-oxopyrrolidin-3-yl)ethyl)-2-((1R*,2R*)-2′,3′-dihydrospiro[cyclopropane-1,1′-indene]-2-carbonyl)-2,3,3a,4,7,7a-hexahydro-1H-4,7-methanoisoindole-1-carboxamide] | – | 0.1 to 1 µM | 1 to 10 µM | – | – | ≥ 10 µM | 1 to 10 µM
CC(C)(C)[C@H](NC(=O)[C@@H]1CC1(F)F)C(=O)N1C[C@H]2[C@@H]([C@H]1C(=O)N[C@H](C#N)C[C@@H]1CCNC1=O)[C@H]1C=C[C@@H]2C1 [Compound 41] | < 0.02 µM | < 0.1 µM | < 0.1 µM | > 10 µM | < 0.1 µM | ≥ 10 µM | –
CC(C)(C)[C@H](NC(=O)C(F)(F)C(F)(F)F)C(=O)N1C[C@H]2[C@@H]([C@H]1C(=O)N[C@H](C#N)C[C@@H]1CCNC1=O)[C@H]1C=C[C@@H]2C1(F)F [Compound 129, (1R,2R,3S,6S,7S)—N-[(1S)-1-cyano-2-[(3S)-2-oxopyrrolidin-3-yl]ethyl]-4-[(2S)-3,3-dimethyl-2-(2,2,3,3,3-pentafluoropropanamido)butanoyl]-10,10-difluoro-4-azatricyclo[5.2.1.0^{2,6}]dec-8-ene-3-carboxamide] | < 0.02 µM | – | < 0.1 µM | > 0.5 µM | < 0.1 µM | ≥ 10 µM | –
COC(C)(C)[C@H](NC(=O)C(F)(F)C(F)(F)F)C(=O)N1C[C@H]2[C@@H]([C@H]1C(=O)N[C@H](C#N)C[C@@H]1CCNC1=O)[C@H]1C=C[C@@H]2C1 [Compound 131] | < 0.02 µM | – | < 0.1 µM | > 0.5 µM | < 0.1 µM | ≥ 10 µM | –
CC(C)(C)[C@H](NC(=O)CC(F)(F)F)C(=O)N1C[C@H]2[C@@H]([C@H]1C(=O)N[C@H](C#N)C[C@@H]1OCCNC1=O)[C@H]1C=C[C@@H]2C1 [Compound 132] | < 0.02 µM | – | < 0.1 µM | > 0.5 µM | < 0.1 µM | ≥ 10 µM | –
CC(F)(F)[C@H](NC(=O)C(F)(F)F)C(=O)N1C[C@H]2[C@@H]([C@H]1C(=O)N[C@H](C#N)C[C@@H]1CCNC1=O)[C@H]1C=C[C@@H]2C1 [Compound 133] | < 0.02 µM | – | < 0.1 µM | > 0.5 µM | 0.1 to 1 µM | ≥ 10 µM | –
CC(C)(C)[C@H](NC(=O)C(F)(F)F)C(=O)N1C[C@H]2[C@@H]([C@H]1C(=O)N[C@H](C#N)C[C@@H]1CCNC1=O)[C@H]1C=C[C@@H]2C1(F)F [Example 82, (1S,3aS,4S,7R,7aR)—N-((S)-1-cyano-2-((S)-2-oxopyrrolidin-3-yl)ethyl)-2-((S)-3,3-dimethyl-2-(2,2,2-trifluoroacetamido)butanoyl)-8,8-difluoro-2,3,3a,4,7,7a-hexahydro-1H-4,7-methanoisoindole-1-carboxamide] | < 0.02 µM | – | < 0.1 µM | > 10 µM | < 0.1 µM | ≥ 10 µM | –
C[C@@H](OCC1CC1)[C@H](NC(=O)C(F)(F)F)C(=O)N1C[C@H]2[C@@H]([C@H]1C(=O)N[C@H](C#N)C[C@@H]1CCNC1=O)[C@H]1C=C[C@@H]2C1 [Example 99] | < 0.02 µM | – | < 0.1 µM | > 0.5 µM | < 0.1 µM | ≥ 10 µM | –
